Measurements published in patent publication US7736856B2, “Method of screening drug with the use of 67 kDa laminin receptor and drug obtained thereby” (Kyushu TLO Company, Limited, priority 2003, dated 2010).

Key:
[1] = test system: 67LR forced expression cells (A549); assay: Cell growth test (cell count, Tripanblue staining) on 67LR transient expression A549 cells; assay type: cell-based, human; conditions: for number of the cells / growth inhibiting effect (influence of 67LR gene introduction) / survival rate (influence of 67LR gene introduction): 5 μM, 0.5 μg pTARGET-hLamininR in A549 cells; for survival rate (influence of 67LR gene introduction): Tripanblue staining
Protocol: The 67LR expression vector constructed (pTARGET-hLamininR) was introduced into A549 cells, using FuGENE™ 6 Transfection Reagent. Its details are described below. The cells were inoculated into a 10% FBS-ERDF medium at 1×10^4 cells/ml. By keeping at 37° C. for 24 hours, the cells were adhered to the medium. Next, a fresh ERDF medium was put into a tube, and FuGENE™ 6 (three times the amount of the gene) was directly added and gently mixed. Next, pTARGET-hLamininR was added and gently mixed, and this was kept at room temperature for 30 minutes. This was added to the medium, and kept at 37° C. for 48 hours. The cells were washed with a medium, and then the medium was changed with a fresh one.
(§1) Various components of various concentrations were added to the 67LR transient expression cells, and treated in a 5% FBS-containing ERDF medium at 37° C. for 48 hours. After the treatment, the number of the cells was counted, and the survival rate of the cells was determined according to a Tripanblue staining method.
Using FuGENE™ 6 Transfection Reagent, a 67LR expression vector (pTARGET-hLamininR) was introduced into A549 cells according to the method mentioned below. The cells were inoculated at 1×10^4 cells/ml (10% FBS-ERDF medium). After 24 hours, a fresh ERDF medium was put into a tube, and FuGENE™ 6 (three times the amount of the gene) was directly added and gently mixed. Next, pTARGET-hLamininR of varying concentrations were added and gently mixed, and this was kept at room temperature for 30 minutes. This was added to the medium, and was continuously cultured at 37° C. for 48 hours. EGCG of various concentrations were added to the 67LR transient expression cells, and treated with a 5% FBS-containing ERDF medium at 37° C. for 48 hours. After the treatment, the number of the cells was counted and the survival rate thereof was determined according to a Tripanblue staining method.
First, the influence of the substances on the growth of 67LR forced expression cells was investigated. Similarly to the above, 0.5 μg of pTARGET-hLamininR was introduced into A549 cells by the lipofection method, followed by cultivation at 37° C. for 48 hours. Then, the cells were treated with various tea components each having a final concentration of 5 μM. The cells were further cultivated at 37° C. for 48 hours, and then the number of the cells and the survival rate thereof were determined.

[2] = test system: A549 cells; assay: Binding to A549 cells (empty vector / parent) by surface plasmon resonance sensor; parameters: species or system human; conditions: for cell binding to A549 cells: surface plasmon resonance biosensor, 5 μM
Protocol: (§2) The binding of various component (5 μM) to the cells was determined by using a surface plasmon resonance sensor SPR670 (Nippon Laser and Electronic Lab., Nagoya, Japan). For the measurement, the cells were fixed on a gold membrane (Nippon Laser and Electronic Lab.) according to a standard fixation method for protein. Precisely, a gold membrane was dipped in a solution in ethanol of […] of 4,4-dithiodibutyric acid, DDA (Tokyo Kasei Kogyo Co., Ltd., Tokyo, Japan) (this was prepared by dissolving 2.38 mg of DDA in 10 ml of 99% ethanol followed by diluting it with ethanol to 1/100) in such a manner that its gold surface could face upward, and gently stirred at room temperature for 30 minutes. Next, this was washed twice with ethanol with no pressure applied to the gold surface to thereby introduce a self-assembly membrane (SA membrane). 25 mg of a water-soluble carbodiimide, EDC (Wako Pure Chemicals) was dissolved in 1 ml of ultra-pure water; and 15 mg of N-hydroxysuccinimide, NHS (Wako Pure Chemicals) was dissolved in 9 ml of 1,4-dioxane (Nacalai Tesque, Inc.). These solutions were mixed, and the SA membrane-processed gold membrane was dipped into the mixture, and gently stirred at room temperature for 10 minutes. 10 ml of ultra-pure water was added, and further stirred at room temperature for 5 minutes. This was washed twice with ultra-pure water with no water pressure applied to the gold surface thereof, then dried (in air), and mounted on a cartridge. The cells were suspended to a density of 3×10^5 cells/ml (in a flow buffer, PBS), and 20 μl of the cell suspension was dropwise applied onto the gold membrane and kept at room temperature for 30 minutes so as to fix the cells onto the membrane. Next, a green tea catechin diluted with PBS to have a concentration of 1, 10, 25 or 50 μM was applied thereto, and the change in the surface plasmon resonance angle was determined so as to monitor its binding to the cells.
(§3) 67LR is a membrane protein existing in a cell membrane, and the fact that the EGCG effect was enhanced in the cells with the gene expression vector introduced therein would be due to the increase in the EGCG binding. Accordingly, the EGCG binding to the cells was determined by the sue of a surface plasmon resonance sensor. EGCG was used at 5 μM.

[3] = biological target: T1, 67LR forced expression cells (A549 with 67LR expression vector) (Homo sapiens, UniProt P08865); assay: Binding to 67LR forced expression cells by surface plasmon resonance sensor; conditions: for change of cell binding in 67LR forced expression cells: surface plasmon resonance biosensor, 5 μM; for angle change (binding amount): EGCG 5 μM
T1 construct: expressed in transfected cells; host or cells: A549 cells, transient transfection with pTARGET-hLamininR (FuGENE 6)
Protocol: as §2, §3

[4] = biological target: 67LR on cell surfaces (Homo sapiens, UniProt P08865); assay: Flow cytometry: influence of EGCG treatment on detection of cell surface 67LR by anti-67LR antibody; assay type: binding
Protocol: It is known that 67LR is expressed on cell surfaces. Therefore, 67LR expressed on the surfaces of the cells was detected through flow cytometry analysis using an anti-human laminin receptor (LR) antibody. The cells were collected, and using a 1.5-ml Eppendorf tube, they were added to 100 μl, as a whole, of 1% FBS-PBS at 1×10^6 cells therein. A primary antibody, anti-human LR antibody was added to it to have a final concentration of 10 μg/ml. This was incubated at 4° C. for 30 minutes, and then washed once with PBS. Next, a secondary antibody, anti-mouse IgM FITC-labeled antibody capable of recognizing an isotype of LR antibody was added to 25 μl, as a whole, of 1% FBS-PBS so as to have a final concentration of 12.5 μg/ml. This was incubated at 4° C. for 30 minutes, then washed twice with PBS, and re-suspended in PBS, and analyzed with a flow cytometer. A negative control IgM antibody of the same concentration (10 μg/ml) was reacted in the same manner as herein. The 67LR expression amount on the cell surfaces was indicated by the center value of the fluorescent intensity of LR.
For the purpose of investigating the influence of EGCG treatment on the cell surface expression of 67LR, the cells were treated with an EGCG-added 1% FBS-PBS having a final EGCG concentration of 50 μM, and then kept at 37° C. for 30 minutes. This was washed once with PBS. Then, this was treated in the same manner as above with the primary antibody and others, and analyzed. As a control, the cells were treated with an EGCG-free 1% FBS-PBS.

[5] = biological target: T2, 67LR forced expression cells (Homo sapiens, UniProt P08865); assay: Binding competition test of EGCG and anti-67LR antibody (surface plasmon resonance sensor); conditions: cells pretreated with anti-67LR antibody 10 μg/ml, 37° C., 30 minutes
T2 construct: expressed in transfected cells; host or cells: A549 cells, transient transfection with pTARGET-hLamininR (FuGENE 6)
Protocol: as §2, with “These solutions were mixed, and the SA membrane-processed gold membrane was dipped into the mixture, and gently stirred at room temperature for 10 minutes. 10 ml of ultra-pure water was added, and further stirred at room temperature for 5 minutes. This was washed twice with ultra-pure water with no water pressure applied to the gold surface thereof, then dried (in air), and mounted on a cartridge. The cells were suspended to a density of 3×10^5 cells/ml (in a flow buffer, PBS), and 20 μl of the cell suspension was dropwise applied onto the gold membrane and kept at room temperature for 30 minutes so as to fix the cells onto the membrane.” left out, “cells. […]” for “cells.”

[6] = biological target: T2, 67LR forced expression cells; assay: Growth inhibition by EGCG after anti-67LR antibody pretreatment of 67LR forced expression cells; assay type: cell-based
Protocol: as §1
Regarding […] pretreatment, an anti-67LR antibody having a final concentration of 10 μg/ml (1% FBS-containing ERDF medium) was treated at 37° C. for 30 minutes, and then EGCG treatment was carried out so as to investigate the influence thereof on the antibody-treatment cells. As a negative control, the same treatment was carried out with mouse IgM.

Compound	number of the cells / growth inhibiting effect (influence of 67LR gene introduction) ([1]; 48 hours)	cell binding to A549 cells [2]	change of cell binding in 67LR forced expression cells [3]	survival rate (influence of 67LR gene introduction) ([1]; 48 hours)	further results
O=C(O[C@@H]1Cc2c(O)cc(O)cc2O[C@@H]1c1ccc(O)c(O)c1)c1cc(O)c(O)c(O)c1 [ECG, epicatechin-3-O-gallate]	increase in the growth inhibiting effect	showed cell binding though not comparable to that of EGCG	cell binding increased		
COc1cc(C(=O)O[C@@H]2Cc3c(O)cc(O)cc3O[C@@H]2c2cc(O)c(O)c(O)c2)cc(O)c1O [EGCG3″Me, epigallocatechin-3-(3-O-methyl)-gallate]	increase in the growth inhibiting effect	showed cell binding though not comparable to that of EGCG	cell binding increased		
epigallocatechin-3-O-gallate [EGCG]	increase in the growth inhibiting effect				apparent 67LR expression detected by anti-67LR antibody after EGCG ([4]; EGCG 50 μM before antibody, 67LR-introduced cells): it was the same; apparent 67LR expression detected by anti-67LR antibody after EGCG ([4]; EGCG 50 μM before antibody, cells with empty vector): The same phenomenon was found; apparent 67LR expression detected by anti-67LR antibody after EGCG ([4]; EGCG 50 μM, 37° C., 30 minutes before antibody, control A549 cells): apparently disappeared; EGCG binding amount (angle change) [5]: reduction; EGCG binding speed [5]: reduction; growth inhibiting activity ([1]; EGCG 0.1 μM, 67LR forced expression cells): showed its growth inhibiting activity; cell growth inhibition ([1]; EGCG of various concentrations, 67LR transiently expressed A549 cells, 5% FBS ERDF, 37° C., 48 hours): concentration-dependent cell growth inhibition was observed; cell growth inhibition versus 67LR gene amount introduced ([1]; pTARGET-hLamininR of varying concentrations, EGCG, 48 hours): in proportion to the 67LR gene amount introduced into the cells, cell growth inhibition was also observed; angle change (binding amount) ([2]; EGCG 5 μM, A549 cells with empty vector): Only a little angle change; angle change (binding amount) ([3]; cells with 0.25 μg of 67LR expression vector): a great increase in the angle; angle change (binding amount) ([3]; cells with 0.5 μg of 67LR expression vector): a further greater increase in the angle; survival rate ([6]; EGCG with or without antibody pretreatment, Tripanblue staining): no influence on the survival rate was found; growth inhibiting activity after antibody treatment ([6]; anti-67LR antibody treatment before EGCG): the growth inhibiting activity was lost
Cn1c(=O)c2c(ncn2C)n(C)c1=O [caffeine, Caffeine]	no influence	did not show cell binding	no change		
Oc1cc(O)c2c(c1)O[C@H](c1cc(O)c(O)c(O)c1)[C@H](O)C2 [EGC, epigallocatechin]	no influence	no binding	no change	no influence	
catechin	no influence	no binding	no change	no influence	
O=c1c(O)c(-c2ccc(O)c(O)c2)oc2cc(O)cc(O)c12 [quercetin]	no influence	did not show cell binding	no change	no influence	
